Experimental data published in ChEMBL document CHEMBL1201862, “PubChem BioAssay data set” (2004).
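1) Cells in 96-well plates. 2) Compound, 48 h, 5 concentrations. 3) Linear interpolation between surrounding doses. 4) Unreached endpoint = highest concentration. Here, GI50 denotes the concentration required for 50% inhibition of growth.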 Activity calls are given as the source filed them. No stated cut-off is given here; in the data, active = GI50 up to about 1.1 µM and inactive = higher.

Legend:
Assay in all cases: NCI tumour cell line growth inhibition, 48 h
A549 = system: A549
UACC-62 = system: UACC-62
UACC-257 = system: UACC-257
NCI-H522 = system: NCI-H522
K562 = system: K562
HCC 2998 = system: HCC 2998
KM12 = system: KM12
TK-10 = system: TK-10
SF-268 = system: SF-268
RPMI-8226 = system: RPMI-8226
OVCAR-4 = system: OVCAR-4
SK-MEL-5 = system: SK-MEL-5
ACHN = system: ACHN
SK-OV-3 = system: SK-OV-3
SK-MEL-28 = system: SK-MEL-28
UO-31 = system: UO-31
SNB-19 = system: SNB-19
MOLT-4 = system: MOLT-4
NCI-H460 = system: NCI-H460

Measured: GI50

CCOc1ccccc1N1C(=O)C(=O)C(c2nc3ccccc3o2)/C(=N\N)C1=O (centres undefined)
inactive: A549 > 100 µM | UACC-62 > 100 µM | UACC-257 49.9 µM | NCI-H522 > 100 µM | K562 > 100 µM | HCC 2998 > 100 µM | KM12 > 100 µM | TK-10 56.5 µM | SF-268 55 µM | RPMI-8226 > 100 µM | OVCAR-4 27.1 µM | SK-MEL-5 > 100 µM | ACHN 88.1 µM | SK-OV-3 > 100 µM | SK-MEL-28 > 100 µM | UO-31 31.2 µM | SNB-19 > 100 µM

Cc1ccccc1NC(=O)C1C(=O)N(c2ccccc2C)C(=O)/C1=N\N (centres undefined)
inactive: A549 > 100 µM | UACC-62 > 100 µM | UACC-257 > 100 µM | NCI-H522 > 100 µM | K562 > 100 µM | MOLT-4 > 100 µM | HCC 2998 > 100 µM | KM12 > 100 µM | SF-268 > 100 µM | RPMI-8226 > 100 µM | OVCAR-4 > 100 µM | SK-MEL-5 > 100 µM | NCI-H460 > 100 µM | ACHN > 100 µM | SK-OV-3 > 100 µM | SK-MEL-28 > 100 µM | UO-31 > 100 µM | SNB-19 > 100 µM

O=C(O)c1ccc(C2COc3ccc(Cl)cc3C2)cc1 (centres undefined)
inactive: A549 > 100 µM | UACC-62 > 100 µM | UACC-257 > 100 µM | NCI-H522 > 100 µM | K562 > 100 µM | MOLT-4 > 100 µM | HCC 2998 > 100 µM | KM12 > 100 µM | TK-10 > 100 µM | SF-268 > 100 µM | RPMI-8226 > 100 µM | SK-MEL-5 > 100 µM | NCI-H460 > 100 µM | ACHN > 100 µM | SK-OV-3 > 100 µM | SK-MEL-28 > 100 µM | UO-31 > 100 µM | SNB-19 > 100 µM

CC(NC(=O)OC(C)(C)C)C(=O)NC1CCCC1 (centres undefined)
inactive: A549 > 100 µM | UACC-257 > 100 µM | NCI-H522 > 100 µM | K562 > 100 µM | MOLT-4 > 100 µM | HCC 2998 > 100 µM | KM12 > 100 µM | TK-10 > 100 µM | SF-268 > 100 µM | RPMI-8226 > 100 µM | OVCAR-4 > 100 µM | SK-MEL-5 > 100 µM | NCI-H460 > 100 µM | ACHN > 100 µM | SK-OV-3 > 100 µM | SK-MEL-28 > 100 µM | UO-31 > 100 µM | SNB-19 > 100 µM

CCOC(=O)C(=O)Nc1ccc(C)c(C)c1
inactive: A549 > 100 µM | UACC-62 > 100 µM | UACC-257 > 100 µM | NCI-H522 > 100 µM | K562 > 73.1 µM | MOLT-4 > 100 µM | HCC 2998 > 100 µM | KM12 > 53.8 µM | TK-10 > 100 µM | SF-268 > 100 µM | RPMI-8226 > 100 µM | OVCAR-4 > 100 µM | SK-MEL-5 > 100 µM | NCI-H460 > 60.4 µM | ACHN > 100 µM | SK-OV-3 > 100 µM | SK-MEL-28 > 100 µM | UO-31 > 100 µM | SNB-19 > 100 µM

N=C(N)SCc1cn2ccccc2n1
inactive: A549 > 100 µM | UACC-257 > 100 µM | NCI-H522 > 100 µM | K562 > 100 µM | MOLT-4 > 100 µM | HCC 2998 > 100 µM | KM12 > 100 µM | TK-10 > 100 µM | SF-268 > 100 µM | RPMI-8226 > 100 µM | OVCAR-4 > 100 µM | SK-MEL-5 > 100 µM | NCI-H460 > 100 µM | ACHN > 100 µM | SK-MEL-28 > 100 µM | UO-31 > 100 µM | SNB-19 > 100 µM

OC(c1cc2ccccc2[nH]1)C(O)(c1cc2ccccc2[nH]1)c1cc2ccccc2[nH]1 (centres undefined)
inactive: A549 12.6 µM | UACC-62 5.97 µM | UACC-257 16.3 µM | NCI-H522 8.61 µM | K562 10.9 µM | MOLT-4 8.07 µM | HCC 2998 8.09 µM | KM12 8 µM | TK-10 40.1 µM | SF-268 15.6 µM | RPMI-8226 7.11 µM | SK-MEL-5 11.6 µM | NCI-H460 14.4 µM | ACHN 18.6 µM | SK-OV-3 10.4 µM | SK-MEL-28 19.1 µM | SNB-19 27.2 µM

CC1C2CC=CC(=O)[C@@]2(C)CCC12OCCO2 (some centres undefined)
inactive: A549 > 100 µM | UACC-62 > 100 µM | UACC-257 > 100 µM | NCI-H522 > 100 µM | K562 > 100 µM | MOLT-4 > 100 µM | HCC 2998 > 100 µM | KM12 > 100 µM | TK-10 > 100 µM | SF-268 > 100 µM | OVCAR-4 > 100 µM | SK-MEL-5 24.6 µM | NCI-H460 > 100 µM | ACHN > 100 µM | SK-OV-3 > 100 µM | SK-MEL-28 > 100 µM | UO-31 > 100 µM | SNB-19 > 100 µM

CC(=O)O[C@H]1CSC[C@@H](OC(C)=O)C1[N+](=O)[O-] (some centres undefined)
inactive: A549 > 100 µM | UACC-62 65.8 µM | UACC-257 20.6 µM | NCI-H522 19.4 µM | K562 26.4 µM | MOLT-4 27.8 µM | HCC 2998 33.7 µM | KM12 63 µM | TK-10 > 100 µM | SF-268 > 100 µM | RPMI-8226 22.5 µM | OVCAR-4 54.8 µM | SK-MEL-5 47.8 µM | NCI-H460 > 100 µM | ACHN 93.5 µM | SK-OV-3 > 100 µM | SK-MEL-28 26.8 µM | SNB-19 > 100 µM

C=C1C(=O)O[C@@H]2[C@H]1CCC(C)=C1C=CC(=O)[C@]12C
inactive: A549 23.6 µM | UACC-62 10.3 µM | UACC-257 12.4 µM | NCI-H522 2.42 µM | K562 4.49 µM | MOLT-4 10.9 µM | HCC 2998 13.2 µM | KM12 12.4 µM | TK-10 23 µM | SF-268 23.9 µM | RPMI-8226 6.67 µM | SK-MEL-5 13.9 µM | NCI-H460 19.4 µM | ACHN 16.1 µM | SK-OV-3 27.2 µM | SK-MEL-28 11.1 µM | UO-31 14.9 µM | SNB-19 23.7 µM

O=C1c2cccc(O)c2C(=O)c2c(O)cc(CO)cc21 [ALOE-EMODIN]
inactive: A549 40 µM | UACC-257 49.8 µM | NCI-H522 22.8 µM | MOLT-4 40.8 µM | HCC 2998 83.9 µM | KM12 40.2 µM | TK-10 > 100 µM | SF-268 52.4 µM | RPMI-8226 31.5 µM | OVCAR-4 77.8 µM | SK-MEL-5 15.8 µM | NCI-H460 29.4 µM | ACHN 32.7 µM | SK-OV-3 > 100 µM | SK-MEL-28 > 100 µM | SNB-19 49.1 µM
